# Experimental data taken from patent publication US10632125B2, “MTH1 inhibitors for treatment of inflammatory and autoimmune conditions” (THOMAS HELLEDAYS STIFTELSE FÖR MEDICINSK FORSKNING, priority 2014, dated 2020).
# Target: MTH1 (Homo sapiens, UniProt P36639)
# Experiment: MTH1 enzymatic assay (malachite green, coupled to pyrophosphatase)
# Format: biochemical
# Conditions: dGTP 100 μM, MTH1 6 nM; 96- or 384-well format; read-out: IC50
# Procedure: MTH1 catalyzes the hydrolysis of dGTP to dGMP and PPi. By coupling the reaction to pyrophosphatase added in excess PPi is converted to Pi that can be detected by using the malachite green assay reagent. […] 96-well method: Briefly, the compound to be analyzed is diluted in DMSO in a 1:3 dilution series generating 12 different compound concentrations giving a final DMSO concentration of 1% in the assay well. MTH1 diluted in assay buffer (100 mM Tris-acetate, 40 mM NaCl, 10 mM magnesium acetate, 1 mM DTT and 0.005% Tween 20) fortified with E. coli pyrophosphatase (0.2 U/ml) is added to a final concentration of 6 nM. dGTP diluted in assay buffer is added to a final concentration of 100 μM. The reaction mixture is incubated for 15 minutes at 22° C. To 100 μl reaction mixture, 25 μl Malachite green assay regent (0.095% Malachite green in 17% H2SO4, 1.5% Ammonium molybdate, 0.17% Tween 20) is added, followed by incubation with shaking for 15 minutes at 22° C. The absorbance of the assay plate is read at 630 nm using a Hidex Sense Multilabel plate reader. The IC50 value is determined by fitting a dose response curve to the data points using nonlinear regression analysis and the equation Y=Bottom+(Top-Bottom)/(1+10^((Log IC50−X)*HillSlope)), where Y is the read absorbance at 630 nm and X is log [compound].
# 384-Well Method: The compounds to be tested are nano-dispensed, in 11 concentrations, directly in assay plates, with a final DMSO concentration <1%. The protocol and the reaction mixture are the same as for the 96-well assay, with a total reaction volume of 50 μl/well to which 10 μl of Malachite green reagent is added. All additions to the assay plates are made with multidrop.
row,SMILES,IC50
1,"Cc1cccc(-c2cc(NC3CCCC3)nc(N)n2)c1C [Example 153, 4-N-cyclopentyl-6-(2,3-dimethylphenyl)pyrimidine-2,4-diamine]",< 0.2 µM
2,"CNc1cc(-c2cn(S(=O)(=O)c3ccc(C(F)(F)F)cc3)c3ccccc23)nc(N)n1 [Example 155, 4-N-methyl-6-{1-[4-(trifluoromethyl)benzenesulfonyl]-1H-indol-3-yl}pyrimidine-2,4-diamine]",< 0.2 µM
3,"Cc1cccc(-c2cc(NC3CCCCC3)nc(N)n2)c1C [Example 156, 4-N-cyclohexyl-6-(2,3-dimethylphenyl)pyrimidine-2,4-diamine]",< 0.2 µM
4,"CCNc1cc(-c2cccc(C)c2C)nc(N)n1 [Example 158, 6-(2,3-dimethylphenyl)-4-N-ethylpyrimidine-2,4-diamine]",< 0.2 µM
5,"Cc1ccc(S(=O)(=O)n2cc(-c3cc(NC(C)C)nc(N)n3)c3ccccc32)cc1 [Example 163, 6-[1-(4-methylbenzenesulfonyl)-1H-indol-3-yl]-4-N-(propan-2-yl)pyrimidine-2,4-diamine]",< 0.2 µM
6,"CNc1cc(-c2coc3ccccc23)nc(N)n1 [Example 170, 6-(1-benzofuran-3-yl)-4-N-methylpyrimidine-2,4-diamine]",< 0.2 µM
7,"CNc1cc(-c2csc3ccccc23)nc(N)n1 [Example 172, 6-(1-benzothiophen-3-yl)-4-N-methylpyrimidine-2,4-diamine]",< 0.2 µM
8,"CC(C)Nc1cc(-c2cccc(Cl)c2Cl)nc(N)n1 [Example 176, 6-(2,3-dichlorophenyl)-4-N-(propan-2-yl)pyrimidine-2,4-diamine]",< 0.2 µM
9,"Nc1nc(NCC2CC2)cc(-c2cccc(Cl)c2Cl)n1 [Example 177, 4-N-(cyclopropylmethyl)-6-(2,3-dichlorophenyl)pyrimidine-2,4-diamine]",< 0.2 µM
10,"CNc1cc(-c2cc(Br)ccc2OC)nc(N)n1 [Example 183, 6-(5-bromo-2-methoxyphenyl)-4-N-methylpyrimidine-2,4-diamine]",< 0.2 µM
11,"CNc1cc(-c2cc(C)ccc2C)nc(N)n1 [Example 184, 6-(2,5-dimethylphenyl)-4-N-methylpyrimidine-2,4-diamine]",< 0.2 µM
12,"CNc1cc(-c2cccnc2C(F)(F)F)nc(N)n1 [Example 185, 4-N-methyl-6-[2-(trifluoromethyl)pyridin-3-yl]pyrimidine-2,4-diamine]",< 0.2 µM
13,"CNc1cc(-c2ccc(OCc3ccccc3)cc2C)nc(N)n1 [Example 187, 6-[4-(benzyloxy)-2-methylphenyl]-4-N-methylpyrimidine-2,4-diamine]",< 0.2 µM
14,"CNc1cc(-c2cc(C)c(OC)cc2C)nc(N)n1 [Example 188, 6-(4-methoxy-2,5-dimethylphenyl)-4-N-methylpyrimidine-2,4-diamine]",< 0.2 µM
15,"CNc1cc(-c2cc(C)c(C)cc2C)nc(N)n1 [Example 189, 4-N-methyl-6-(2,4,5-trimethylphenyl)pyrimidine-2,4-diamine]",< 0.2 µM
16,"CNc1cc(-c2cc(Cl)ccc2C#N)nc(N)n1 [Example 190, 2-[2-amino-6-(methylamino)pyrimidin-4-yl]-4-chlorobenzonitrile]",< 0.2 µM
17,"CNc1cc(-c2cc(Cl)c(Cl)cc2C)nc(N)n1 [Example 191, 6-(4,5-dichloro-2-methylphenyl)-4-N-methylpyrimidine-2,4-diamine]",< 0.2 µM
18,"CNc1cc(-c2cc(C)c(F)cc2C)nc(N)n1 [Example 193, 6-(4-fluoro-2,5-dimethylphenyl)-4-N-methylpyrimidine-2,4-diamine]",< 0.2 µM
19,"CNc1cc(-c2cc(C(F)(F)F)ccc2C)nc(N)n1 [Example 194, 4-N-methyl-6-[2-methyl-5-(trifluoromethyl)phenyl]pyrimidine-2,4-diamine]",< 0.2 µM
20,"CNc1cc(-c2cc(Cl)c(C(F)(F)F)cc2C)nc(N)n1 [Example 195, 6-[5-chloro-2-methyl-4-(trifluoromethyl)phenyl]-4-N-methylpyrimidine-2,4-diamine]",< 0.2 µM
21,"CNc1cc(-c2cc(C(F)(F)F)ccc2C(F)(F)F)nc(N)n1 [Example 196, 6-[2,5-bis(trifluoromethyl)phenyl]-4-N-methylpyrimidine-2,4-diamine]",< 0.2 µM
22,"CNc1cc(-c2cc(C)ccc2F)nc(N)n1 [Example 200, 6-(2-fluoro-5-methylphenyl)-4-N-methylpyrimidine-2,4-diamine]",< 0.2 µM
23,"CNc1cc(-c2cc(C)ccc2OC)nc(N)n1 [Example 204, 6-(2-methoxy-5-methylphenyl)-4-N-methylpyrimidine-2,4-diamine]",< 0.2 µM
24,"CNc1cc(-c2cc(F)ccc2Cl)nc(N)n1 [Example 205, 6-(2-chloro-5-fluorophenyl)-4-N-methylpyrimidine-2,4-diamine]",< 0.2 µM
25,"CNc1cc(-c2cc(C#N)ccc2F)nc(N)n1 [Example 206, 3-[2-amino-6-(methylamino)pyrimidin-4-yl]-4-fluorobenzonitrile]",< 0.2 µM
26,"CNc1cc(-c2cc(OC)ccc2Cl)nc(N)n1 [Example 207, 6-(2-chloro-5-methoxyphenyl)-4-N-methylpyrimidine-2,4-diamine]",< 0.2 µM
27,"CNc1cc(-c2cc(Cl)c(C)cc2F)nc(N)n1 [Example 214, 6-(5-chloro-2-fluoro-4-methylphenyl)-4-N-methylpyrimidine-2,4-diamine]",< 0.2 µM
28,"Cc1cc(-c2cc(NC3CC3)nc(N)n2)c(C)cc1F [Example 216, 4-N-cyclopropyl-6-(4-fluoro-2,5-dimethylphenyl)pyrimidine-2,4-diamine]",< 0.2 µM
29,"COc1cc(C)c(-c2cc(NC3CC3)nc(N)n2)cc1C [Example 217, 4-N-cyclopropyl-6-(4-methoxy-2,5-dimethylphenyl)pyrimidine-2,4-diamine]",< 0.2 µM
30,"Cc1ccc(C)c(-c2cc(NC3CC3)nc(N)n2)c1 [Example 218, 4-N-cyclopropyl-6-(2,5-dimethylphenyl)pyrimidine-2,4-diamine]",< 0.2 µM

# Continued, values first:
row,IC50,SMILES
1,< 0.2 µM,"CCNc1cc(-c2cc(Cl)ccc2C)nc(N)n1 [Example 221, 6-(5-chloro-2-methylphenyl)-4-N-ethylpyrimidine-2,4-diamine]"
2,< 0.2 µM,"Cc1cc(-c2cc(NCCc3ccc(Cl)cc3)nc(N)n2)c(C)cc1F [Example 223, 4-N-[2-(4-chlorophenyl)ethyl]-6-(4-fluoro-2,5-dimethylphenyl)pyrimidine-2,4-diamine]"
3,< 0.2 µM,"Cc1ccc(C)c(-c2cc(NCCc3ccc(Cl)cc3)nc(N)n2)c1 [Example 224, 4-N-[2-(4-chlorophenyl)ethyl]-6-(2,5-dimethylphenyl)pyrimidine-2,4-diamine]"
4,< 0.2 µM,"CNc1cc(-c2ccc(/C=C/C(=O)O)cc2)nc(N)n1 [Example 233, (2E)-3-{4-[2-amino-6-(methylamino)pyrimidin-4-yl]phenyl}prop-2-enoic acid]"
5,< 0.2 µM,"Cc1cccc(-c2cc(NCC3CN(C(=O)OC(C)(C)C)C3)nc(N)n2)c1C [Example 234, tert-butyl 3-({[2-amino-6-(2,3-dimethylphenyl)pyrimidin-4-yl]amino}methyl)-azetidine-1-carboxylate]"
6,< 0.2 µM,"Nc1nc(NC2CC2)cc(-c2ccc3[nH]ccc3c2)n1 [Example 235, 4-N-cyclopropyl-6-(1H-indol-5-yl)pyrimidine-2,4-diamine]"
7,< 0.2 µM,"Cc1cccc(-c2cc(NCC(C)(C)CNC(=O)OC(C)(C)C)nc(N)n2)c1C [Example 239, tert-Butyl (3-((2-amino-6-(2,3-dimethylphenyl)pyrimidin-4-yl)amino)-2,2-dimethyl-propyl)carbamate]"
8,< 0.2 µM,"CNc1cc(-c2cc(Cl)c(OC)cc2C)nc(N)n1 [Example 240, 6-(5-chloro-4-methoxy-2-methylphenyl)-4-N-methylpyrimidine-2,4-diamine]"
9,< 0.2 µM,"Cc1c(Cl)cccc1-c1cc(NC(C)Cc2c[nH]c3ccccc23)nc(N)n1 (stereo not shown) [Example 243, 6-(3-chloro-2-methylphenyl)-4-N-[1-(1H-indol-3-yl)propan-2-yl]pyrimidine-2,4-diamine]"
10,< 0.2 µM,"Cc1cccc(-c2cc(NCCOc3ccccc3Cl)nc(N)n2)c1C [Example 247, 4-N-[2-(2-chlorophenoxy)ethyl]-6-(2,3-dimethylphenyl)pyrimidine-2,4-diamine]"
11,< 0.2 µM,"Cc1cccc(-c2cc(NCCc3nc4cc(Cl)ccc4[nH]3)nc(N)n2)c1C [Example 248, 4-N-[2-(5-chloro-1H-1,3-benzodiazol-2-yl)ethyl]-6-(2,3-dimethylphenyl)pyrimidine-2,4-diamine]"
12,< 0.2 µM,"Cc1cccc(-c2cc(NCC(C)Oc3cccnc3)nc(N)n2)c1C (stereo not shown) [Example 250, 6-(2,3-dimethylphenyl)-4-N-[2-(pyridin-3-yloxy)propyl]pyrimidine-2,4-diamine]"
13,< 0.2 µM,"Cc1cccc(-c2cc(NCc3ccc4[nH]ncc4c3)nc(N)n2)c1C [Example 251, 6-(2,3-dimethylphenyl)-4-N-(1H-indazol-5-ylmethyl)pyrimidine-2,4-diamine]"
